The results in this text go back to patent publication US6930088B2, “Conformationally constrained backbone cyclized somatostatin analogs” (Peptor Ltd., priority 1998, dated 2005).

Data set [1] can be described thus: Metabolic bio-stability against degradation by enzyme mixtures. Format: in vitro ADME. The settings on record: in words; renal homogenate, rat liver homogenate and human serum.
Data set [2] in a line: In vitro biostability in renal homogenate (HPLC). The conditions noted are these: for remaining at 1 h / remaining at 3 h / remaining at 24 h: kidney or brush border membranes. The procedure: The assay was based on HPLC determination of peptide degradation as a function of time in renal homogenate at 37° C.
For data set [3], the system named is Opiate receptors. The experiment in a line: NovaScreen nonspecific binding, Opiate receptors. The settings on record: tested at 100 nM; FIG. 2. The text has this: NovaScreen (Hanover, Md.) performed an assessment for nonspecific binding to various G-protein coupled receptor families. Binding studies to Neurokinin, Opiate and Muscarinic receptors were based on a comparison between the native hormone Somatostatin, Ocreotide and PTR 3173.

The target of data set [4] is T1, SSTR-3 (Homo sapiens, UniProt P32745).
T1 construct: expressed in transfected cells
The experiment in a line: Inhibition of 125I-Tyr11-SRIF binding to membrane preparations expressing SSTR-3. The conditions noted are these: SST-R3, read-out: Percent inhibition of SRIF-14 binding; for inhibition at 1 µM: 10^−6M; for inhibition at 0.1 µM: 10^−7M; for inhibition at 0.01 µM: 10^−8M. The procedure: The somatostatin analogs were tested for their potency in inhibition of the binding of ^125I-Tyr^11-SRIF (based on the method described by Raynor et. al., Molecular Pharmacology, 1993, 43, 838-844) to membrane preparations expressing the transmembranal somatostatin receptors (SSTR-1, 2, 3, 4 or 5). The receptor preparations used for these tests were either from the cloned human receptors selectively and stably expressed in Chinese Hamster Ovary (CHO) cells or from cell lines naturally expressing the SSTRs. […] The binding reactions were filtered, the filters were washed and the bound radioactivity was counted in gamma counter. Non specific binding was defined as the radioactivity remaining bound in the presence of 1 μM unlabeled SRIF-14.
(§1) In order to validate positive signals of the binding tests, and to eliminate non-specific signals, samples of irrelevant peptides, such as GnRH, that were synthesized and handled using the same procedures, were tested in the same assays as negative control samples. These samples had no binding activity in any of the assays. Results are shown below in Tables 5 and 6 and FIG. 1.

Data set [5] has as its target T2, SSTR-5 (Homo sapiens, UniProt P35346).
T2 construct: expressed in transfected cells
The experiment in a line: Inhibition of 125I-Tyr11-SRIF binding to membrane preparations expressing SSTR-5. The conditions noted are these: SST-R5, read-out: Percent inhibition of SRIF-14 binding; for inhibition at 1 µM: 10^−6M; for inhibition at 0.1 µM: 10^−7M; for inhibition at 0.01 µM: 10^−8M. The procedure:
The receptor preparations used for these tests were either from the cloned human receptors selectively and stably expressed in Chinese Hamster Ovary (CHO) cells or from cell lines naturally expressing the SSTRs. […] The binding reactions were filtered, the filters were washed and the bound radioactivity was counted in gamma counter. Non specific binding was defined as the radioactivity remaining bound in the presence of 1 μM unlabeled SRIF-14.
as §1

The conditions of data set [6]: rat, in vivo, iv, 6 mg/kg. The procedure: PTR 3173 was tested in various species for its initial safety properties. Under the European Pharmacopoeia requirements for safety testing, it was declared a safe drug candidate at this stage of development.
The subject of data set [7] is somatostatin receptors (SSTR-1, 2, 3, 4 or 5). The experiment in a line: Somatostatin receptor subtype selectivity of binding. Also noted: species or system human. The settings on record: in words. The procedure: The somatostatin analogs were tested for their potency in inhibition of the binding of ^125I-Tyr^11-SRIF (based on the method described by Raynor et. al., Molecular Pharmacology, 1993, 43, 838-844) to membrane preparations expressing the transmembranal somatostatin receptors (SSTR-1, 2, 3, 4 or 5). The receptor preparations used for these tests were either from the cloned human receptors selectively and stably expressed in Chinese Hamster Ovary (CHO) cells or from cell lines naturally expressing the SSTRs. Typically, cell membranes were homogenated in Tris buffer in the presence of protease inhibitors and incubated for 30-40 minutes with ^125I-Tyr^11-SRIF with different concentrations of the tested sample. The binding reactions were filtered, the filters were washed and the bound radioactivity was counted in gamma counter. Non specific binding was defined as the radioactivity remaining bound in the presence of 1 μM unlabeled SRIF-14.
as §1

For data set [8], the target named is T3, cloned human somatostatin receptor 5 (human, UniProt P35346 1-364).
T3 construct: whole, on cells; Tested as cell membrane preparations; also called SSTR-5; SSTR5
The experiment in a line: IC50 for SST-R5 (subtype numbers stand in r6).

The target in data set [9] is T3, cloned human somatostatin receptor 5. Nature of the data set: 125I-Tyr11-SRIF displacement, membranes, cloned human SST-R5.
For data set [10], the target named is T4, cloned human somatostatin receptor 3 (human, UniProt P32745 1-418).
T4 construct: whole, on cells; Tested as cell membrane preparations; also called SSTR-3; SSTR3
The experiment in a line: 125I-Tyr11-SRIF displacement, membranes, cloned human SST-R3. From the text: (§2) The receptor preparations used for these tests were either from the cloned human receptors selectively and stably expressed in Chinese Hamster Ovary (CHO) cells or from cell lines naturally expressing the SSTRs. […] The binding reactions were filtered, the filters were washed and the bound radioactivity was counted in gamma counter.

The target of data set [11] is T5, cloned human somatostatin receptor 1 (human, UniProt P30872 1-391).
T5 construct: whole, on cells; Tested as cell membrane preparations; also called SSTR-1; SSTR1
The experiment in a line: inhibition of SRIF binding, cloned human SSTR-1; head says nM, values evidently molar.
Excerpt: as §2

For data set [12], the target named is T6, cloned human somatostatin receptor 2 (human, UniProt P30874 1-369).
T6 construct: whole, on cells; Tested as cell membrane preparations; also called SSTR-2; SSTR2
Nature of the data set: inhibition of SRIF binding, cloned human SSTR-2; head says nM, values evidently molar.
Excerpt: as §2

The target in data set [13] is T4, cloned human somatostatin receptor 3. The experiment in a line: inhibition of SRIF binding, cloned human SSTR-3; head says nM, values evidently molar.
Excerpt: as §2

Data set [14] deals with T3, cloned human somatostatin receptor 5. The experiment in a line: inhibition of SRIF binding, cloned human SSTR-5; head says nM, values evidently molar.
Excerpt: as §2

The target in data set [15] is T5, cloned human somatostatin receptor 1. Nature of the data set: IC50 for SST-R1 (subtype numbers stand in r6).
In data set [16] the target is T4, cloned human somatostatin receptor 3. The experiment in a line: IC50 for SST-R3 (subtype numbers stand in r6).

*1 amine or outer side, *2 acyl side, *3 side chain or, on linkers, in order; H or OH if unused. Where a SMILES comes first, the peptide text is derived from it. Bridges are numbered along the chain shown (N, C = ends). Where no end group is shown, it is not given here. [ ]: non-standard residue; d: D form. N(2-aminoethyl)Phe = O=C([C@H](Cc1ccccc1)N(CCN[*:3])[*:1])[*:2]; N(CH2CH2CO)Gly = O=C(CN(CCC(=O)[*:3])[*:1])[*:2]; 2Nal = N[C@@H](Cc1ccc2ccccc2c1)C(=O)O; Gly(S2) = not defined here; Phe(C1) = not defined here; Mpa = O=C(O)CCS

T2 sequence (P35346 whole entry): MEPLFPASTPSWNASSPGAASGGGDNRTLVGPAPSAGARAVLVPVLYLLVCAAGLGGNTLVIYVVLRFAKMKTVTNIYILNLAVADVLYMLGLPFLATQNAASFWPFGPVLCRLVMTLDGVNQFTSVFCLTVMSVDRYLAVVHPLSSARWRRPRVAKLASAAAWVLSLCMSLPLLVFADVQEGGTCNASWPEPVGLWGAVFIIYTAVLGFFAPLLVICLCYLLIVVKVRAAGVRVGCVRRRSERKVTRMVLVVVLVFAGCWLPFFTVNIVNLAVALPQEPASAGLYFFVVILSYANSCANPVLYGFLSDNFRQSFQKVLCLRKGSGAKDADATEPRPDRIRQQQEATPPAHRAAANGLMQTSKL
T3 sequence (P35346 whole entry): as above
T4 sequence (P32745 whole entry): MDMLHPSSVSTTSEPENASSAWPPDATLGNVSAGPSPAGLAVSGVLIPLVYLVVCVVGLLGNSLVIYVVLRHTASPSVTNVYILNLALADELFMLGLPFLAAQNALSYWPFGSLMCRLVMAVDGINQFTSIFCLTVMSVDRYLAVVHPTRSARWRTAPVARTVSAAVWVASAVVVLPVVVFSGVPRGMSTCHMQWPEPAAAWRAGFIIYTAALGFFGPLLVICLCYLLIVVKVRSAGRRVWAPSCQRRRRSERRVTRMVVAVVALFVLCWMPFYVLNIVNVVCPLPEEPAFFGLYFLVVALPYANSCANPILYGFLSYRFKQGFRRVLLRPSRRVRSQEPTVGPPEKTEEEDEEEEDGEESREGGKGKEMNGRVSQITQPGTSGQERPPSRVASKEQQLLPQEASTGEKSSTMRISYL
T1 sequence (P32745 whole entry): as above
T5 sequence (P30872 whole entry): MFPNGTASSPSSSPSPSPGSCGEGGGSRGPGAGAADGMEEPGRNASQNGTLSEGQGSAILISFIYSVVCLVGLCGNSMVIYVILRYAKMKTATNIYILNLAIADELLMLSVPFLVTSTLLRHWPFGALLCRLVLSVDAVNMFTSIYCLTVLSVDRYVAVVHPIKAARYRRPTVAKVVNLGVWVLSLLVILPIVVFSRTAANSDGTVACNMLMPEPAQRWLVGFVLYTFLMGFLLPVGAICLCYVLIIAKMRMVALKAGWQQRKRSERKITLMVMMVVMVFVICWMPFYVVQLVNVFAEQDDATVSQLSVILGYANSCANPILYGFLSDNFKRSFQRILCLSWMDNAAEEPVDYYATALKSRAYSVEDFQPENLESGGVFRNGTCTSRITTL
T6 sequence (P30874 whole entry): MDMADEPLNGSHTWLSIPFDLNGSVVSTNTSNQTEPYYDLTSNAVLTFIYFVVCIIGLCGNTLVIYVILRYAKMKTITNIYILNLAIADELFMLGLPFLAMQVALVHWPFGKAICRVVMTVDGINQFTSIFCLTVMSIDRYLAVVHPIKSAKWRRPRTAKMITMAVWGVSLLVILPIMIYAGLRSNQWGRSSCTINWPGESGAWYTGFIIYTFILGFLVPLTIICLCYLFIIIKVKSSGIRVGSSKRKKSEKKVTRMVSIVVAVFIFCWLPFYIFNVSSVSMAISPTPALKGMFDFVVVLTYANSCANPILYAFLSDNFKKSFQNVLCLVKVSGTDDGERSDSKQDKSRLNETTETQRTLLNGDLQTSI

Turning to `NCCCC[C@@H]1NC(=O)[C@@H](Cc2c[nH]c3ccccc23)NC(=O)[C@H](Cc2ccc(O)cc2)NC(=O)[C@H](Cc2ccccc2)NCCNC(=O)CCN(CC(N)=O)C(=O)[C@H](Cc2ccc3ccccc3c2)NC(=O)[C@H](CO)NC1=O` [PTR 3201, Phe(N2)-Tyr-(D)Trp-Lys-Ser-2Nal-Gly(C2)-X] (H-[N(2-aminoethyl)Phe]Y[dW]KS[2Nal][N(CH2CH2CO)Gly]-NH2; lactam 1-7; N-terminus and C-terminus assumed), the “metabolic bio-stability against degradation by enzymes” value in [1] is recorded as “considerable metabolic bio-stability against degradation by enzymes”.

As a reminder, the share remaining is what is left of the initial amount, in per cent. Turning to `C[C@H](N)C(=O)NCC(=O)N[C@H]1CSSC[C@@H](C(=O)O)NC(=O)[C@H](CO)NC(=O)[C@H]([C@@H](C)O)NC(=O)[C@H](Cc2ccccc2)NC(=O)[C@H]([C@@H](C)O)NC(=O)[C@H](CCCCN)NC(=O)[C@H](Cc2c[nH]c3ccccc23)NC(=O)[C@H](Cc2ccccc2)NC(=O)[C@H](Cc2ccccc2)NC(=O)[C@H](CC(N)=O)NC(=O)[C@H](CCCCN)NC1=O` [SRIF, H-Ala^1-Gly^2-Cys^3-Lys^4-Asn^5-Phe^6-Phe^7-Trp^8-Lys^9-Thr^10-Phe^11-Thr^12-Ser^13-Cys^14-OH, reference compound], the “Percent of intact molecule after incubation in renal homogenate” value in data set [2] (Time 0 hrs, 37° C.) came to 100%. In data set [2], this molecule returned a share remaining at 1 h of 5%, a fraction remaining at 3 h of 0% and an amount remaining at 24 h of 0%. In addition, in data set [3], the “binding to Opiate receptors” value was “did not bind”.

For orientation: inhibition means how much of the control response was suppressed. For `NCCCC[C@H]1NC(=O)[C@@H](Cc2c[nH]c3ccccc23)NC(=O)[C@H](Cc2ccccc2)NC(=O)[C@H](Cc2ccccc2)NC(=O)[C@H](Cc2ccccc2)NCC(=O)NCCN([C@@H](Cc2ccccc2)C(N)=O)C1=O` [PTR 3123, Phe(C1)-Phe-Phe-(D)Trp-(D)Lys-Phe(N2)-X], in [4], the inhibition at 1 µM is 84%, the inhibition at 0.1 µM came to 41% and the inhibition at 0.01 µM is 24%. Besides, in [5], the inhibition at 1 µM amounted to 0%, the inhibition at 0.1 µM was determined as 0% and the inhibition at 0.01 µM came out at 0%. In data set [2], this molecule returned a share remaining at 1 h of 100%, a share remaining at 3 h of 100% and a share remaining at 24 h of 100%. In addition, the safety entry in [6] is “safe”.

On to `C[C@@H](O)[C@@H]1NC(=O)[C@H](CCCCN)NC(=O)[C@@H](Cc2c[nH]c3ccccc23)NC(=O)[C@H](Cc2ccccc2)NC(=O)[C@@H]2CSSC[C@H](NC1=O)C(=O)N([C@@H](Cc1ccccc1)C(N)=O)CCCNC(=O)CCCN[C@@H](Cc1ccccc1)C(=O)N2` [PTR 3205, Phe(C3)-Cys*-Phe-(D)Trp-Lys-Thr-Cys*-Phe(N3)-X], for which, in data set [1], the “metabolic bio-stability against degradation by enzymes” value is reported as “considerable metabolic bio-stability against degradation by enzymes”.

“Phe(N2)-Tyr-(D)Trp-Lys-Val-Val-Gly(C2)-X ([N(2-aminoethyl)Phe]Y[dW]KVV[N(CH2CH2CO)Gly]; lactam 1-7; not fully specified) [PTR 3185]”: the “somatostatin receptor subtype selectivity” value in data set [7] is “selective for the type 5 somatostatin receptor”.

On to “Phe(N2)-Tyr-(D)Trp-Lys-Val-Gly(C2)-2Nal-X ([N(2-aminoethyl)Phe]Y[dW]KV[N(CH2CH2CO)Gly][2Nal]; lactam 1-6; not fully specified) [PTR 3183]”, for which the “somatostatin receptor subtype selectivity” value in [7] is listed as “selective for the type 5 somatostatin receptor”.

For `NCCCC[C@@H]1NC(=O)[C@@H](Cc2c[nH]c3ccccc23)NC(=O)[C@H](Cc2ccccc2)NC(=O)[C@H](Cc2ccccc2)NC(=O)[C@H](Cc2ccccc2)NCC(=O)NCCN([C@@H](Cc2ccccc2)C(N)=O)C1=O` [PTR 3113, Phe(C1)-Phe-Phe-(D)Trp-Lys-Phe(N2)-X], in data set [4], the inhibition at 1 µM stood at 94%, the inhibition at 0.1 µM stood at 65% and the inhibition at 0.01 µM is 16%. For the same molecule, in data set [5], the inhibition at 1 µM came out at 86%, the inhibition at 0.1 µM worked out at 50% and the inhibition at 0.01 µM amounted to 0%. In addition, in data set [2], the amount remaining at 1 h came out at 100%, the fraction remaining at 3 h stood at 100% and the share remaining at 24 h stood at 100%. The safety result in [6] is reported as “safe”.

B1: PTR 3211 (peptide)
peptide: {mercaptoacetic acid}-FW[dW]KTF[Gly(S2)]-NH2
modifications: disulfide N-7; reading uncertain
notes: Cyclized between the SH moiety and the SH-type building unit
In general, IC50 refers to the concentration that gives 50% inhibition. Read a high IC50 as lower potency. Take B1: the midpoint of inhibition in data set [8], the IC50, lay at 1.3 nM.

B2: PTR 3123 (peptide)
peptide: [Phe(C1)]FF[dW][dK][N(2-aminoethyl)Phe]
modifications: lactam 1-6; reading uncertain
notes: Backbone cyclized hexapeptide
In data set [9], B2 yielded a percent inhibition of SRIF-14 binding at 10^-7M of 0% and a percent inhibition of SRIF-14 binding at 10^-8M of 0%. In data set [10], the “percent inhibition of SRIF-14 binding at 10^-6M” value worked out at 84%, the “percent inhibition of SRIF-14 binding at 10^-7M” value stood at 41% and the “percent inhibition of SRIF-14 binding at 10^-8M” value is 24%.

B3: PTR 3207 (peptide)
peptide: [dF]CFW[dW]KTF[Gly(S2)]-NH2
modifications: disulfide 2-9; reading uncertain
notes: Backbone to side chain cyclized nonapeptide
Take B3: the IC50 was 4 nM in [8]; 100 nM in data set [11]; 1 nM in data set [12]; 1 nM in data set [13]; 10 nM in data set [14].

B4: PTR 3219 (peptide)
peptide: FGFWWKTFG
modifications: (D)Phe at 1; Gly(S2) building units at 2 and 9 bridged to each other; (D)Trp at 5; C-terminal amide
The molecule B4 came in with an IC50 in data set [8] of 37 nM. In other words, the double-digit nanomolar range.

B5: PTR 3217 (peptide)
peptide: [Mpa]FW[dW]KTF[Gly(S2)]-NH2
modifications: bridge N-8; reading uncertain
In the case of B5, in data set [8], the midpoint of inhibition, the IC50, lay at 4.1 nM.

B6: PTR 3197 (peptide)
peptide: CFW[dW]KTF[Gly(S2)]-NH2
modifications: disulfide 1-8; reading uncertain
notes: Backbone to side chain cyclized octapeptide
With B6, the IC50 in data set [15] is 1000 nM; in data set [16], 40 nM; in data set [11], 10 nM; in data set [12] it was 10 nM; in [13] it was 1 nM; in [14] it was 10 nM.
